According to publication PMC3006138, “Fexinidazole – A New Oral Nitroimidazole Drug Candidate Entering Clinical Development for the Treatment of Sleeping Sickness” (PLoS Neglected Tropical Diseases, 2010):

Legend:
Excretion balance = format: in vivo, rat; details: for excreted percent of dose, faeces / excreted percent of dose, urine: 800 mg/kg po; for radioactivity eliminated: within 48 h
Experimental: Excretion balance in rats was carried out using a single oral dose of radiolabelled fexinidazole administered at the dose of 800 mg/kg (approximately 3.7 MBq/kg, 100 µCi/kg) by gastric gavage to three male albino Sprague Dawley rats. […]
This study was conducted according to Protocol N° 0162-2008 and to Amendment 1. A copy of the experimental protocol is included in Appendix 1; a copy of the amendment is included […]
FEXINIDAZOLE is a 5-nitroimidazole derivative biologically active against Trypanosoma parasites (T.b. rhodesiense and T.b. brucei) and useful in the treatment of the Human African Trypanosomiasis (HAT), known as sleeping sickness. FEXINIDAZOLE is a compound currently under development by the Sponsor.
The objective of this study was to obtain information on the elimination of radioactive drug-related material in urine and faeces following oral administration of [14C]-FEXINIDAZOLE (800 mg/kg) to male Sprague Dawley rats.
The albino Sprague Dawley rat was chosen as the species for this study since it was one of the species used in the toxicological evaluation of the test compound.
Only male animals were used as no gender differences were expected with respect to the aim of the study. The oral route of administration was chosen as this is the intended therapeutic route. The dose level was selected in agreement with the Study Sponsor and it is within the pharmacological relevant range. No overt toxicity was expected after single dosing at this […]
The study was conducted on 3 male animals after single oral administration of [14C]- FEXINIDAZOLE (800 mg/kg, approximately 3.7 MBq/kg, 100 µCi/kg).
Urine and faeces were collected up to 96 hours after administration. The radioactivity levels of drug-related material were determined in each collected sample by Liquid Scintillation […]
A summary of the experimental design is reported below:
Animal no. Date of Dosing Administered Dose Samples collected and (oral administration) analyzed
100 µCi/kg washes, carcass and skin […]
The test formulations were prepared by suspending unlabelled FEXINIDAZOLE and [14C]- FEXINIDAZOLE (see section 5.1) in 5% Tween 80 and 0.5% Methyl cellulose 400 cP (Methocel) in water, in order to obtain [14C]-FEXINIDAZOLE at the final target concentration of 80 mg/mL corresponding to a radioactivity concentration of about 370 […]
The test formulation was prepared by suspending an appropriate amount of unlabelled FEXINIDAZOLE in the dose vehicle. This formulation was homogenised using a Potter-Elvehjem homogenizer apparatus (teflon pestle of approx. 30 mm x 53 mm and glass tube of 40 mL), in order to obtain a fine suspension by up-and-down strokes, gently made by hand. The formulation was then collected and transferred from the homogeniser glass tube to the glass pot containing the [14C]-FEXINIDAZOLE.
During the preparation the test formulation was protected from light as far as possible.
The radioactivity concentration and homogeneity of the test formulation were determined, before administration, by liquid scintillation counting of triplicate weighed aliquots of test formulation. The radiolabelled test formulation was used immediately after formulation.
6.7.1. Administered Doses
The dose of [14C]-FEXINIDAZOLE was orally administered by gastric gavage at the target dose level of 800 mg/kg (radioactivity dose of about 3.7 MBq/kg, 100 µCi/kg) and at a target dose volume of about 10 mL/kg.
Individual doses were prepared for each animal by weighing the appropriate amount of the test formulation in an appropriate syringe for oral administration. The amount of dose administered to each animal was determined by weighing the filled syringe before the treatment and the empty syringe after dose administration. The actual dose received by each animal was calculated using the weight of the administered formulation, the radioactivity concentration and the final specific activity of the test material.
The actual doses received by each animal are documented in Table 1. […]

human MDR1 = test: in vitro; details: dog, MDCK-MDR1, pH 7.4
Experimental: (§1) Caco-2 [36] or MDR1-MDCK (Madin Darby canine kidney cells transfected with the human multidrug resistance MDR1 gene) cell monolayers were grown to confluence on collagen-coated, microporous, polycarbonate membranes in 12-well microtitre plates. The buffer for the donor chamber was Hanks balanced salt solution with 10 mM HEPES and 15 mM glucose at pH 7.4. The buffer in the receiver chamber contained the same with the addition of 1% bovine serum albumin (BSA). The test article was added at 5 µM in the assay buffer. […] After 2 h, duplicate aliquots were taken from the donor and receiver chambers and assayed via LC/MS. The apparent permeability and recovery were calculated using standard methods.
(§2) The objective of this study was to determine the bi-directional MDR1-MDCK permeability and efflux limited absor ption potential of thr ee test compounds. […]
(§3) 4. Th e buff er in th e r ecei ver cha m ber a l so con t a in ed 1% Bovi n e Ser um Al bumin ( BSA) . Th e test compound dosing concentrations were 5 µM in th e a ssay bu f fer . […] After two hours, a l iquot s wer e t a ken fr om th e r ecei ver an d don or cha m ber s. E a ch det erm ina ti on wa s per for m ed in dupl i cat e. Th e Lucifer Yellow flux was also measur ed for each mon olayer after bein g subjected to th e test compoun ds to en sur e n o damage was in flicted to th e cell mon olayer s durin g th e flux per iod. All samples wer e assayed by LC/MS/MS usin g electrospray ionization. Analytical conditions are outlined in Attachment I. The apparent permeability, Papp, and per cen t r ecover y wer e calculated as follows: […]
(§4) dCr /dt is th e slope of th e cumulative con cen tration in th e r eceiver compartment ver sus time in µM s -1. […]

in vitro = details: dog
Experimental: as §1, §2, §3, §4

[1] = test system: MDR1 (human, transfected); test: in vitro; details: dog, MDCK-MDR1, pH 7.4
Experimental: as §1, §2, §3, §4

[2] = test system: MDR1-MDCK cell monolayers; test: in vitro; details: MDCK-MDR1
Experimental: as §1, §2, §3, §4

[3] = 0-96 h, listed as [14C]-FEXINIDAZOLE

SMILES: CSc1ccc(OCc2ncc([N+](=O)[O-])n2C)cc1 [Fexinidazole, 1-methyl-2-((p-(methylthio)phenoxy)methyl)-5-nitroimidazole]
- overall recovery of total radioactivity (Excretion balance; 0-96 h): approximately 93%
- percent of dose, cage washing (Excretion balance; 0-96 h): 2.73%
- radioactivity recovered in all the excreta (including cage washes) (Excretion balance; 0-96 h): Approximately 91.4%
- overall recovery of total radioactivity (Excretion balance; [3]): 92.87%
- excreted percent of dose, faeces (Excretion balance; 0-96 h): 59%
- excreted percent of dose, urine (Excretion balance; 0-96 h): 30%
- excreted percent of dose, faeces (Excretion balance; [3]): 58.77%
- excreted percent of dose, urine (Excretion balance; [3]): 29.92%
- dose recovered from the carcass (and skin) (Excretion balance; 96 h): About 1.4%
- percent of dose, carcass (Excretion balance; 96 h): 1.01%
- percent of dose, skin (Excretion balance; 96 h): 0.43%
- radioactivity eliminated (Excretion balance): 84%
- radioactivity eliminated (Excretion balance; listed as [14C]-FEXINIDAZOLE): about 84.3%
- Papp B→A at 2 h, 5 µM (human MDR1): 55.1 ×10⁻⁶ cm/s
- Papp A→B at 2 h, 5 µM (in vitro; MDCK-MDR1, pH 7.4): 60.6 ×10⁻⁶ cm/s
- recovery at 2 h, 5 µM (in vitro; MDCK-MDR1, pH 7.4, Percent Recovery A→B): 71%
- recovery at 2 h, 5 µM (in vitro; MDCK-MDR1, pH 7.4, Percent Recovery B→A): 77%
- efflux ratio at 2 h, 5 µM [1]: 0.9
- Papp B-A / Papp A-B Ratio [2]: no significant efflux
